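Five concentrations, 48 hours, 96-well plates. GI50: concentration for 50% inhibition of growth.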 Activity calls are given as the source filed them. Rule as the data show it: active = GI50 up to about 1.1 µM and inactive = higher.
Experiments:
Experiment in all cases: DTP human tumour cell line panel, 48 h
[1] = system: HL-60
[2] = system: SK-OV-3
[3] = system: OVCAR-3
[4] = system: SW-620
[5] = system: MCF7
[6] = system: MDA-MB-435
[7] = system: TK-10
[8] = system: PC-3
[9] = system: K562
[10] = system: RPMI-8226
[11] = system: A549
[12] = system: RXF 393
[13] = system: LOX IMVI
[14] = system: KM12
[15] = system: HOP-62
[16] = system: COLO 205
[17] = system: HCC 2998
[18] = system: UACC-257
[19] = system: HCT-116
[20] = system: SK-MEL-28
[21] = system: NCI/ADR-RES
[22] = system: T47D
[23] = system: SNB-19
[24] = system: A498
[25] = system: IGROV-1
[26] = system: MOLT-4
[27] = system: OVCAR-8
[28] = system: SF-539
[29] = system: SK-MEL-5
[30] = system: HCT-15
[31] = system: NCI-H23
[32] = system: ACHN
[33] = system: SN12C
[34] = system: OVCAR-5
[35] = system: SF-268
[36] = system: SK-MEL-2
[37] = system: OVCAR-4
[38] = system: M14
[39] = system: SF-295
[40] = system: UACC-62
[41] = system: NCI-H460
[42] = system: MDA-MB-231
[43] = system: HT-29
[44] = system: SNB-75
[45] = system: HOP-92
[46] = system: 786-0
[47] = system: SR
[48] = system: NCI-H226
[49] = system: U-251
[50] = system: BT-549
[51] = system: Malme-3M
[52] = system: MDA-N
[53] = system: DU-145
[54] = system: EKVX
[55] = system: UO-31
[56] = system: Hs-578T
[57] = system: CAKI-1
[58] = system: NCI-H522
[59] = system: CCRF-CEM

In the case of COC(=O)C1=C(O)C(C(=O)OC)[C@]2(O)[C@H](C(=O)OC)[C@H]1C[C@@H](c1ccc(Cl)cc1Cl)[C@H]2C(=O)OC (stereo not given in full), the GI50 [1] was 2.65 µM (inactive), the GI50 [2] was 13.2 µM (inactive) and the GI50 [3] was 5.14 µM (inactive). For the same molecule, the GI50 [4] was 6.01 µM (inactive), the GI50 [5] was 4.79 µM (inactive) and the GI50 [6] was 4.09 µM (inactive). The GI50 [7] was 12.6 µM (inactive), the GI50 [8] was 8.41 µM (inactive) and the GI50 [9] was 3.47 µM (inactive). The GI50 [10] was 1.75 µM (inactive), the GI50 [11] was 4.36 µM (inactive) and the GI50 [12] was 7.76 µM (inactive). The GI50 [13] was 5.92 µM (inactive), the GI50 [14] was 12.3 µM (inactive) and the GI50 [15] was 5.5 µM (inactive). For the same molecule, the GI50 [16] was 8.77 µM (inactive), the GI50 [17] was 10.1 µM (inactive) and the GI50 [18] was 10 µM (inactive). For the same molecule, the GI50 [19] was 6.3 µM (inactive), the GI50 [20] was 12.4 µM (inactive) and the GI50 [21] was 3.83 µM (inactive). For the same molecule, the GI50 [22] was 4.83 µM (inactive), the GI50 [23] was 6.98 µM (inactive) and the GI50 [24] was 11.4 µM (inactive). For the same molecule, the GI50 [25] was 6.3 µM (inactive), the GI50 [26] was 2.48 µM (inactive) and the GI50 [27] was 4.81 µM (inactive). The GI50 [28] was 2.84 µM (inactive), the GI50 [29] was 4.91 µM (inactive) and the GI50 [30] was 4.91 µM. The GI50 [31] was 4.34 µM (inactive), the GI50 [32] was 11 µM (inactive) and the GI50 [33] was 3.28 µM (inactive). For the same molecule, the GI50 [34] was 17 µM (inactive), the GI50 [35] was 7.62 µM (inactive) and the GI50 [36] was 4.7 µM (inactive). For the same molecule, the GI50 [37] was 6.55 µM (inactive), the GI50 [38] was 6.24 µM (inactive) and the GI50 [39] was 7.46 µM (inactive). The GI50 [40] was 9.46 µM (inactive), the GI50 [41] was 5.64 µM (inactive) and the GI50 [42] was 19.5 µM (inactive). For the same molecule, the GI50 [43] was 13.2 µM (inactive), the GI50 [44] was 8.61 µM (inactive) and the GI50 [45] was 7.96 µM (inactive). For the same molecule, the GI50 [46] was 26.3 µM (inactive), the GI50 [47] was 4.06 µM (inactive) and the GI50 [48] was 2.91 µM (inactive). For the same molecule, the GI50 [49] was 2.72 µM (inactive), the GI50 [50] was 6.31 µM (inactive) and the GI50 [51] was 6.95 µM (inactive). For the same molecule, the GI50 [52] was 2.74 µM (inactive), the GI50 [53] was 6.68 µM (inactive) and the GI50 [54] was 19.1 µM (inactive). The GI50 [55] was 8.97 µM (inactive), the GI50 [56] was 15.5 µM (inactive) and the GI50 [57] was 9.68 µM (inactive).

For CCc1nc(N)nc(N)c1-c1ccc([N+](C)(C)C)cc1, the GI50 [1] was > 100 µM (inactive), the GI50 [2] was > 100 µM (inactive) and the GI50 [3] was > 100 µM (inactive). For the same molecule, the GI50 [4] was > 100 µM (inactive), the GI50 [5] was > 100 µM (inactive) and the GI50 [6] was > 100 µM (inactive). For the same molecule, the GI50 [7] was > 100 µM (inactive), the GI50 [8] was > 100 µM (inactive) and the GI50 [9] was > 83.4 µM (inactive). For the same molecule, the GI50 [10] was > 100 µM (inactive), the GI50 [11] was > 100 µM (inactive) and the GI50 [12] was > 100 µM (inactive). For the same molecule, the GI50 [13] was > 100 µM (inactive), the GI50 [14] was > 100 µM (inactive) and the GI50 [15] was > 100 µM (inactive). For the same molecule, the GI50 [16] was > 100 µM (inactive), the GI50 [17] was > 100 µM (inactive) and the GI50 [18] was > 100 µM (inactive). For the same molecule, the GI50 [58] was > 100 µM (inactive), the GI50 [19] was > 100 µM (inactive) and the GI50 [20] was > 100 µM (inactive). The GI50 [21] was > 100 µM (inactive), the GI50 [22] was > 100 µM (inactive) and the GI50 [23] was > 100 µM (inactive). For the same molecule, the GI50 [24] was > 100 µM (inactive), the GI50 [25] was > 100 µM (inactive) and the GI50 [26] was > 100 µM (inactive). The GI50 [27] was > 100 µM (inactive), the GI50 [28] was > 100 µM (inactive) and the GI50 [29] was > 100 µM (inactive). For the same molecule, the GI50 [30] was over 100 µM, the GI50 [31] was > 100 µM (inactive) and the GI50 [32] was > 100 µM (inactive). The GI50 [33] was > 100 µM (inactive), the GI50 [34] was > 100 µM (inactive) and the GI50 [35] was > 100 µM (inactive). For the same molecule, the GI50 [36] was > 100 µM (inactive), the GI50 [37] was > 100 µM (inactive) and the GI50 [38] was > 100 µM (inactive). The GI50 [39] was > 100 µM (inactive), the GI50 [40] was > 100 µM (inactive) and the GI50 [41] was > 90.2 µM (inactive). The GI50 [42] was > 100 µM (inactive), the GI50 [43] was > 100 µM (inactive) and the GI50 [44] was > 100 µM (inactive). The GI50 [45] was > 100 µM (inactive), the GI50 [46] was > 100 µM (inactive) and the GI50 [47] was > 100 µM (inactive). The GI50 [48] was > 100 µM (inactive), the GI50 [49] was > 100 µM (inactive) and the GI50 [50] was > 100 µM (inactive). The GI50 [52] was > 100 µM (inactive), the GI50 [53] was > 100 µM (inactive) and the GI50 [54] was > 100 µM (inactive). The GI50 [59] was > 100 µM (inactive), the GI50 [55] was > 100 µM (inactive) and the GI50 [56] was > 100 µM (inactive). The GI50 [57] was > 100 µM (inactive).
